Measurements: patent US20230278957A1, “TREX1 INHIBITORS AND USES THEREOF” (WAKE FOREST UNIVERSITY HEALTH SCIENCES, priority 2020, published 2023)
Where two headings read alike, the source gives them in different places.

Columns and labels:
TREX1 = biological target: T1, TREX1 (Homo sapiens, UniProt Q9NSU2); assay: gel-based ssDNA degradation assay, inhibition kinetics; format: biochemical; conditions: 15 nM or 515 nM FAM-labeled 30-mer oligo
T1 sequence (Q9NSU2 1-242): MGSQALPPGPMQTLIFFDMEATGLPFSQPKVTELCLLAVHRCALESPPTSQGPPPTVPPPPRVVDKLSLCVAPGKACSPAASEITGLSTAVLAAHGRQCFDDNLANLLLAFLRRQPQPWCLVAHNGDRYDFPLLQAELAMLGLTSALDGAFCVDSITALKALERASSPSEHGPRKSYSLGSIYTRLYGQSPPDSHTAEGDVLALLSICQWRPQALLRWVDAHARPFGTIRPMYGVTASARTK
Protocol: Reactions are incubated at room temperature for 20 min, quenched, dried in vacuo, resuspended, and visualized on a urea-polyacrylamide gel. Initial velocities of each reaction are calculated via densitometric analysis of the gel, and then normalized to vehicle control reactions to calculate percent activities. Dose-response plots are fitted with nonlinear regression to interpolate IC50.

[1] = biological target: T2, recombinant hTREX1(1-242)WT (hT1) (Homo sapiens, UniProt Q9NSU2); assay: fluorescence-based exonuclease assay, hTREX1 IC50 and HTS; format: biochemical
T2 construct: recombinant hTREX1(1-242)^WT
T2 sequence (Q9NSU2 1-242): T1 sequence (Q9NSU2 1-242)
Protocol: FIG. 1: Determining IC50 of Candidate Compounds. […] Standard time-course reactions were prepared in 150 µL volumes containing vehicle or indicated concentrations of inhibitor (Panel A= 0.1-10 µM; Panel C= 1-50 µM), incubated 1 hr at room temperature, and 20 µL samples of each reaction taken at time-points of 0, 5, 10, 20, 30, 45, & 60 minutes and quenched in 20 µL of 15X SYBR Green. Fluorescence was measured, and fluorescence versus time plots were normalized to maximal initial fluorescence and background fluorescence. Plots were fitted with nonlinear regression, then initial velocities of each reaction interpolated and normalized to vehicle-only control reactions to give percent activity. Plots of inhibitor concentration versus percent activity were fit with nonlinear regression to interpolate compound IC50. Plots were generated in Prism (GraphPad) and combined in PowerPoint. Active compounds had IC50 determined in at least three separate experiments. Panels E-F: Gel Assay Validation of Hit Compound IC50. Several hit compounds, including those shown, had their IC50 confirmed via gel assay to validate efficacy of the fluorescence-based biochemical assay. Results of the gel and fluorescence assays were in agreement for all compounds tested. Standard time-course reactions containing nicked plasmid were prepared in 150 µL volumes with the indicated concentrations of inhibitor, and incubated at room temperature. Reaction samples were taken at indicated times, quenched, dried in vacuo, resuspended, then visualized by agarose gel electrophoresis. Control lanes containing supercoiled dsDNA plasmid (‘Plasmid’) and undegraded nicked dsDNA plasmid (‘Nicked’) are included. Low-MW residual bands are ssDNA plasmid leftover from TREX1 exonuclease activity.
We altered a reported fluorescence-based exonuclease assay^17,23 for the purposes of HTS. The assay parameters were optimized to limit materials use and maximize the dynamic range of the assay readout. We used this assay to perform a HTS of the three mentioned libraries against recombinant hTREX1(1-242)^WT, hereafter abbreviated as ‘hT1’. In the case of all libraries, compounds eliciting ≤50% activity at their indicated screening concentrations were identified as ‘candidates’.
The biochemical assay used for HTS was also applied to determining candidate IC50. Briefly, time-course reactions were performed for a range of concentrations for each candidate, and plots of fluorescence vs time were normalized to the initial fluorescence of the reaction and the plate-wide background fluorescence. This normalization helped address compounds with inherent effects on the fluorescent readout. Initial velocities were calculated from normalized plots and used to calculate percent activities relative to vehicle-only control reactions. Standard dose-response curves were then constructed to interpolate candidate IC50. […] Candidates that initially tested with IC50 ≤100 µM had their IC50 redetermined in two additional, independent experiments. […] To validate the efficacy of the fluorescence-based assay at determining IC50, several of the hit compounds had their IC50 confirmed using a gel assay previously described by our lab^23. Briefly, a dsDNA plasmid is nicked, the substrate is incubated with TREX1 which degrades off (partially or completely) the nicked strand, and the reaction is quenched in ethanol, dried in vacuo, and visualized via agarose gel electrophoresis. Example data of these validation assays is provided (FIG. 1, Panels E-F).

mechanism of inhibition classification (TREX1): mixed inhibitor
IC50 ([1]; experiment 1, read-out: IC50 #1): 300 nM
IC50 ([1]; experiment 2, read-out: IC50 #2): 1100 nM
IC50 ([1]; experiment 3, read-out: IC50 #3): 1500 nM
IC50 ([1]; median of three independent experiments, read-out: Median IC50): 1100 nM
Structure (SMILES): O=C1c2ccccc2C(=O)c2c1cc(S(=O)(=O)O)c(O)c2O [TIM009]
